This assay deals with CaV1.2. The assay can be described thus: Whole-cell patch clamp of CaV1.2 variants in HEK 293T/17 cells. It counts as cell-based, rat. As to conditions: interleaved WT, mean±SEM; for Imax Ba2+ (peak current density) / Imax Ba2+ (r300): 10 mM Ba^2+; for Imax Ba2+ (peak current density): 0 mV; for Imax Ca2+ (peak current density) / Imax Ca2+ (r300): 10 mM Ca^2+; for Imax Ca2+ (peak current density): +20 mV; for VDI300: 1-(Ba300/Bamax); for netCDI300: 1-(Ca300/Camax)/(Ba300/Bamax); for Imax Ba2+ (r300) / Imax Ca2+ (r300): fraction of maximal current remaining after 300 ms. The procedure: HEK 293T/17 cells (ATCC) were maintained as previously described ([15], [53]). For electrophysiology, Lipofectamine 2000 (Invitrogene) or JetPrime (Polyplus Transfection) was used to transiently transfect cells with indicated plasmid DNAs in 35 mm dishes. For biochemistry experiments, transient transfection of HEK 293T/17 cells in […] dishes was achieved using either JetPrime or, as previously described ([15], [53]), the calcium phosphate method. Cells were cotransfected with plasmids encoding the pore-forming α11.2 subunit N-terminally tagged with eCFP ([15], [53]) or mCherry ([54]) plus pGWIH-based plasmids encoding the auxiliary subunits rat β2A ([55]) and rabbit α2δ-1 ([56]) as previously described ([15], [53]). For all transfections, equimolar ratio of 1:1:1 was used for CaV1.2 channel subunits and later further optimized (JetPrime) for CaM (at ratio of 1:1:1:0.5 for α11.2:β2A:α2δ−1:CaM). Rat brain α11.2 (GenBank ID: M67515.1) N-terminally fused to eCFP was utilized as previously described ([15]). The point mutations in plasmids encoding single-residue I1654A, Y1657D (this report), and K1662E exchanges in α11.2 were generated via QuikChange II as previously described ([15], [53]) using N-terminally eCFP ([15], [53]) or mCherry tagged ([54]) rat brain α11.2 plasmid template DNAs. We studied CDI using mCherry-tagged α11.2 subunit coexpressed with the other, untagged CaV1.2 subunits and WT CaM or the calmodulin 34 mutant CaM34 (kindly provided by JP Adelman, ([8])). For some biochemical experiments shown in Fig. S2, YFP-tagged CaM was used ([32]).
Macroscopic Ba^2+- (IBa) and Ca^2+ currents (ICa) of CaV1.2 L-type Ca^2+ channels were obtained in the whole-cell configuration using external bath solution containing (in mM) 134 N-methyl-D-glucamine, 10 BaCl2 (for CDI, 10 CaCl2), 1 MgCl2, 10 Hepes, and 10 glucose with an adjusted pH of 7.4 (Cs-OH) and an osmolarity of 300 to 310 mOsm (sucrose). Intracellular pipette solution contained (in mM) 125 Cs-MeSO3, 5 CsCl, 10 EGTA, 10 Hepes, 1 MgCl2, 4 Mg-ATP, and pH 7.3 (CsOH), mOsm 290 to 300 (sucrose). Cells were clamped at a holding potential of -80 mV and depolarized for 900 ms to a series of activating potentials, from −60 mV to +50 mV (or +80 mV for Ca^2+ currents), in increments of 10 mV at an interval of 0.033 Hz. The series resistance and the cell capacitance were directly taken from the Amplifier (Axopatch 200B, Molecular Device) and compensated to ∼40%. Data were sampled at 10 kHz and lowpass filtered at 2 kHz. Leak subtracted raw data were analyzed with Pclamp10 and GraphPad Prism IX software. All recordings were performed at room temperature (RT).
Table S1. HEK 293T/17 cells were transiently transfected with eCFP-tagged rat CaV1.2 (WT versus I1654A and K1662E or versus Y1657D) plus α2δ1 and β2a and whole cell current recorded (see Fig. 3 for more details).
Panel A. Peak current density from I/V curves of whole-cell recordings. Imax values were determined at +20 mV for Ca2+ and 0 mV for Ba2+.
Panel B. r300 values and quantification of CDI and VDI. Whole-cell currents remaining after 300 ms of depolarization (r300) are given as fraction of maximal currents based on values in A. Net CDI was calculated as the ratiometric value net 1-(Ca300/Camax)/(Ba300/Bamax) and VDI as 1- […]
For each panel: Top: Analysis of interleaved recordings of CaV1.2 WT versus I1654A and K1662E IQ- mutants (one-way ANOVA with a Bonferroni post-hoc test; *p<0.05, **p<0.01 and ***p<0.001 and ****p<0.0001). Bottom: Analysis of interleaved recordings of CaV1.2 WT versus Y1657D IQ-mutant CaV1.2 (unpaired T-Test, *p<0.05 and ****p<0.0001). […]
mean±SEM and numbers in parentheses (n) are independent experiments.
IQ-variant ImaxCa2+(pA/pF) ImaxBa2+(pA/pF) p-value

For “CaV1.2: WT rat brain α11.2 with α2δ1 and β2A expressed in HEK 293T/17 cells”, where the note is “I1654A, K1662E”, the “Imax Ba2+ (peak current density)” value is 46.7±9.1 pA/pF, the “Imax Ca2+ (peak current density)” value came to 18.3±4.2 pA/pF, the VDI300 is 0.19±0.02 and the netCDI300 amounted to 0.59±0.04. Moreover, where the note is “I1654A, K1662E”, the “Imax Ba2+ (r300)” value is 0.81±0.02 and the “Imax Ca2+ (r300)” value was 0.33±0.03. For the same substance, for the setting “Y1657D”, the “Imax Ba2+ (peak current density)” value worked out at 21.8±4 pA/pF, the “Imax Ca2+ (peak current density)” value is 16.4±2.1 pA/pF, the VDI300 is reported as 0.17±0.02 and the netCDI300 was found to be 0.61±0.03. Also, where the note is “Y1657D”, the “Imax Ba2+ (r300)” value turned out to be 0.83±0.02 and the “Imax Ca2+ (r300)” value is 0.32±0.03.

These data come from article PMC9764201, “Half-calcified calmodulin promotes basal activity and inactivation of the L-type calcium channel CaV1.2” (The Journal of Biological Chemistry, 2022).
